Results published in patent US9890156B2, “Bicyclic heterocycles as FGFR4 inhibitors” (Incyte Corporation, priority 2015, dated 2018).
Where two headings read alike, the source gives them in different places.

Columns and labels:
[1] = molecular target: FGFR4 (Homo sapiens (Human), UniProt P22455); experiment: FGFR Enzymatic Assay (FRET, peptide phosphorylation), FGFR4
[2] = molecular target: FGFR3 (Homo sapiens (Human), UniProt P22607); experiment: FGFR Enzymatic Assay (FRET, peptide phosphorylation), FGFR3; type: biochemical; settings: pre-incubated for 4 hours; ATP 140 μM
[3] = molecular target: FGFR2 (Homo sapiens (Human), UniProt P21802); experiment: FGFR Enzymatic Assay (FRET, peptide phosphorylation), FGFR2; settings: read-out: FGFR2 IC50; pre-incubated for 4 hours; ATP 100 uM
[4] = molecular target: FGFR1 (Homo sapiens (Human), UniProt P11362); experiment: FGFR Enzymatic Assay (FRET, peptide phosphorylation), FGFR1; settings: read-out: FGFR1 IC50; pre-incubated for 4 hours; ATP 210 uM
[5] = read-out: FGFR4 IC50, pre-incubated for 4 hours, ATP 600 uM

FGFR2, sequence (P21802 22-821): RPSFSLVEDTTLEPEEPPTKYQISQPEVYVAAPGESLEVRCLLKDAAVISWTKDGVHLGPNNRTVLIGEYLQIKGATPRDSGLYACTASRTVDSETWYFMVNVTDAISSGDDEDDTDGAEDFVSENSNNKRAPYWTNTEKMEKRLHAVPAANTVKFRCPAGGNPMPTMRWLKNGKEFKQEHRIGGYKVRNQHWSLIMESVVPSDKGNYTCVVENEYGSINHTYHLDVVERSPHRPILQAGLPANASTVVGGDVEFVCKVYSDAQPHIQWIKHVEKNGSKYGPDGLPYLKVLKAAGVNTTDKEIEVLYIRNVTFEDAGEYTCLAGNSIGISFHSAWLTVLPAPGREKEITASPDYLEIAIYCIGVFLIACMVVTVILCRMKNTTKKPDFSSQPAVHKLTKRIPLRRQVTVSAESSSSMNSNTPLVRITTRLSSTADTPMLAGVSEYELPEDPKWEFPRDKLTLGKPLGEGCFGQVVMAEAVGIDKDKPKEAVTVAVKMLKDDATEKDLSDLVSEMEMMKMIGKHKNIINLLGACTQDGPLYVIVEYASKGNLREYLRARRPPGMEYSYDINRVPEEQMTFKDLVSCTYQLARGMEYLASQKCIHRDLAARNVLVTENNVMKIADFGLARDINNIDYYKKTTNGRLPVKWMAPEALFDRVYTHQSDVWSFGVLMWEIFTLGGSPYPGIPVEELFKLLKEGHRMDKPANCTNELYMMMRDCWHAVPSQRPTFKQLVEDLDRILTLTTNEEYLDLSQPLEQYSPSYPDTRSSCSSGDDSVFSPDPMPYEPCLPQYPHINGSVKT
FGFR3, sequence (P22607 23-806): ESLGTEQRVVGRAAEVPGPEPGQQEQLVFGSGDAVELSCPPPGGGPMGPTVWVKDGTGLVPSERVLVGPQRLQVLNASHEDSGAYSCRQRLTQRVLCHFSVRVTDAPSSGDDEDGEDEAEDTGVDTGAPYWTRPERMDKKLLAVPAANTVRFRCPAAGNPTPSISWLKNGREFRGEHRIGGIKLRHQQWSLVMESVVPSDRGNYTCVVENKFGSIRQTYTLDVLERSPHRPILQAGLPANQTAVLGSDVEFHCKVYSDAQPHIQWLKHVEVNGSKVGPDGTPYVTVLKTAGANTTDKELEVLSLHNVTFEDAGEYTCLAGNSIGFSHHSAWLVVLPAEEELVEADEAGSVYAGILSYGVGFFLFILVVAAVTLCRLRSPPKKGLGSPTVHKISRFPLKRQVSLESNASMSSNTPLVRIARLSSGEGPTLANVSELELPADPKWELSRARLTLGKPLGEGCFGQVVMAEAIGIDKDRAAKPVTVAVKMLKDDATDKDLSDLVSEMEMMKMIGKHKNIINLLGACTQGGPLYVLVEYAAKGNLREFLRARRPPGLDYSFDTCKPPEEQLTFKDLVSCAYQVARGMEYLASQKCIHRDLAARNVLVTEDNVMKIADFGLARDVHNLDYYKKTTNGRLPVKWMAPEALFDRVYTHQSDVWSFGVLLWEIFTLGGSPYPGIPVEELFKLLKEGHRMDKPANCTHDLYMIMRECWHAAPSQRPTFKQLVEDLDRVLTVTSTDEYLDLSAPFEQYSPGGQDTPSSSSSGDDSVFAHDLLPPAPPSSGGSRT
FGFR4, sequence (P22455 22-802): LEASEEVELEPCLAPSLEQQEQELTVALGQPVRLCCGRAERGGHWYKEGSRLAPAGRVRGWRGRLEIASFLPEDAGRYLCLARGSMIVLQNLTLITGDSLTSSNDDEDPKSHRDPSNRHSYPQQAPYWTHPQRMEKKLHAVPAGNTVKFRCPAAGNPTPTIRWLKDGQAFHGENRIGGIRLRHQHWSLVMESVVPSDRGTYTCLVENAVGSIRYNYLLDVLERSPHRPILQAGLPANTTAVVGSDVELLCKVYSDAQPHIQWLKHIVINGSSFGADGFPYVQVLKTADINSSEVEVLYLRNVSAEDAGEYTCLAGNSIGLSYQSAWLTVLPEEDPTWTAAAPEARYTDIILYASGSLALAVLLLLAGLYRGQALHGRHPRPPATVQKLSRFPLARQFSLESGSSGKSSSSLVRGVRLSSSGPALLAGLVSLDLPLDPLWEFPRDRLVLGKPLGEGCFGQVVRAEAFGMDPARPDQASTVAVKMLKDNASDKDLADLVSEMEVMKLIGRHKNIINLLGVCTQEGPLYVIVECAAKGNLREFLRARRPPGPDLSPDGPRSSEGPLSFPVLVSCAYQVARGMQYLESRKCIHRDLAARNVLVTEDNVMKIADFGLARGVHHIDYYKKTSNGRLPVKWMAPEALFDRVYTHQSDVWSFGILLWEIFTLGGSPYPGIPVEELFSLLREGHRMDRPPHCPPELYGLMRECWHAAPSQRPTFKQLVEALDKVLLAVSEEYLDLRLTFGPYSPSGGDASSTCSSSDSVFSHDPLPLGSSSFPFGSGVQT
FGFR1, sequence (P11362 22-822): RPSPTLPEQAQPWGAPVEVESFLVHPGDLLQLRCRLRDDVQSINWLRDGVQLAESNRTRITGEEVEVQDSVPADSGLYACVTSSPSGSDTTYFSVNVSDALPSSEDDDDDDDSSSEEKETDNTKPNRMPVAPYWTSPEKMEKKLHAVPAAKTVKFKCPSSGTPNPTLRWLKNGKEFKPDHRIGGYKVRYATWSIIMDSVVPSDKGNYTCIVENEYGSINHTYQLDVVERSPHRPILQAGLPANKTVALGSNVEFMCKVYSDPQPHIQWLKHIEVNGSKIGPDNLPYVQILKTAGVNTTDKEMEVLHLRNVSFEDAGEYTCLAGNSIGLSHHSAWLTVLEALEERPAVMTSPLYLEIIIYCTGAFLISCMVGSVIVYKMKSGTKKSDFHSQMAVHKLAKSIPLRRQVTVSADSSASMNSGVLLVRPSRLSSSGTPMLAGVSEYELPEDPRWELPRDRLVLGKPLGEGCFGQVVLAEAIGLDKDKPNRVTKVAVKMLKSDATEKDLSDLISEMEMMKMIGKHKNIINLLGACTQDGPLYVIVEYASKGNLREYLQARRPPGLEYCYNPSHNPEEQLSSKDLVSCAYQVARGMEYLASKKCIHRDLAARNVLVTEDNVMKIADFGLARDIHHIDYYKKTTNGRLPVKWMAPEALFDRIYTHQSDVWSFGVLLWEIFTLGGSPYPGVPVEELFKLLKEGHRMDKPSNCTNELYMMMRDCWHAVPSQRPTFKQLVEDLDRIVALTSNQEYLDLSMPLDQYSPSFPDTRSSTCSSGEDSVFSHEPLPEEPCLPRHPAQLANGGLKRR

SMILES	IC50 [1] [nM]	IC50 [2] [nM]	IC50 [3] [nM]	IC50 [4] [nM]	IC50 [1, 5] [nM]
C=CC(=O)NCc1cc2c(cn1)CN(c1c(F)c(OC)cc(OC)c1F)C(=O)N2c1ccncc1 [Example 26, N-((3-(2,6-difluoro-3,5-dimethoxyphenyl)-2-oxo-1-(pyridin-4-yl)-1,2,3,4-tetrahydropyrido[4,3-d]pyrimidin-7-yl)methyl)acrylamide]	10 to 30	> 200	> 200	> 200	
C=CC(=O)NCc1cc2c(cn1)CN(c1c(F)c(OC)cc(OC)c1F)C(=O)N2C[C@H]1CCOC1 [Example 19, (R)—N-((3-(2,6-difluoro-3,5-dimethoxyphenyl)-2-oxo-1-((tetrahydrofuran-3-yl)methyl)-1,2,3,4-tetrahydropyrido[4,3-d]pyrimidin-7-yl)methyl)acrylamide]		> 200	> 200	> 200	< 10
C=CC(=O)NCc1cc2c(cn1)CN(c1c(F)c(OC)cc(OC)c1F)C(=O)N2CC1CCN(C(=O)NC(C)C)CC1 [Example 34, 4-((7-(acrylamidomethyl)-3-(2,6-difluoro-3,5-dimethoxyphenyl)-2-oxo-3,4-dihydropyrido[4,3-d]pyrimidin-1(2H)-yl)methyl)-N-isopropylpiperidine-1-carboxamide]		> 200	> 200	> 200	< 10
